Laboratory results reported in BindingDB's records for doi:10.1016/j.bmcl.2007.04.110 (Vernalis (R&D), 2007).

Target: Cyclin-A2/Cyclin-dependent kinase 2 (Homo sapiens, UniProt P24941)
Test: CDK Inhibition Assay
Conditions: pH 7.5; 22 °C
Description: In vitro kinase assay using purified CDK2/Cyclin A was incubated at room temperature with substrate, and test compounds in the presence of 100 uM ATP/ [gamma-33P] ATP. Assays were performed in 96-well polypropylene plates. 33P incorporation into substrate was measured using a scintillation counter.

`NS(=O)(=O)c1ccc(-c2ccc(/C=c3\sc4nc5ccccc5n4c3=O)o2)cc1` [4-(5-{[(4Z)-3-oxo-5-thia-2,7-diazatricyclo[6.4.0.0^{2,6}]dodeca-1(12),6,8,10-tetraen-4-ylidene]methyl}furan-2-yl)benzene-1-sulfonamide] was tested, and the IC50 was 760 nM.
